Values joined by “and” are separate entries in the source; they are usually repeats but may differ in a detail not shown here. Equal entries are not always repeated. “Also recorded” adds a separate entry of the source.
Tests used:
[1] = system: K-562 cells; experiment: Growth inhibition, K-562 cells; assay type: cell-based, human; conditions: 72 hours; for growth inhibition (in words): 3-1000 μM
Procedure: (§1) The cell lines CEM (T lymphoblastoid cells derived from a human peripheral blood), MOLT-4 (derived from a human acute lymphoblasticleukemia), RAJI (derived from a human Burkitt lymphoma), U-937 (derived from a human histocytic lymphoma), and K-562 (derived from a human chronic myelogenous leukemia) were used to measure the cytotoxicity, as assessed by growth inhibition potential. The cell lines were purchased from the American Type Culture Collection (Vienna, Va.). The cells were grown and maintained as a suspension culture in a RPMI 1640 preparation containing L-glutamine (Biofluids, Rockville, Md.) and 10% (v/v) heat-inactivated fetal calf serum (Invitrogen, Chicago, Ill.); a penicillin-streptomycin solution (Sigma Chemical Co., St. Louis, Mo.) was added to achieve a final concentration of 100 units/mL, and 100 μg/mL respectively. Cells were maintained at 37° C. in a humidified 5% CO2 atmosphere and were passed every 72-96 h to maintain cell densities of approximately 30,000 to 40,000 cells/mL. Under these conditions, the doubling times for CEM cells, MOLT-4 cells, RAJI cells, U-937 cells, and K-562 cells were 21-22 hours.
(§2) FAU and FAUPA were dissolved in deionized water and sterilized by passing through a Millex-GV, 0.22 μm filter, Millipore, Bedford, Mass.
(§3) All cell lines were resuspended in fresh media at 3000 to 3500 cells/mL. To each cell suspension final volume 0.2 mL, was added to achieve 0 to 1000 μM concentration of either FAU or FAU-PA. Control experiments had appropriate amounts of sterile distilled water instead of the drug.

[2] = system: Renca cells; experiment: DNA incorporation studies (PCA acid extraction) in Renca cells; assay type: cell-based, mouse; conditions: 2 hours
Procedure: (§4) Renca, a mouse renal carcinoma cell line used for these studies, was a gift from Dr. G. Gali Hillman, Wayne State University. Cells were cultured in RPMI-1640 medium containing L-glutamine (Gibco) supplemented with 10% (v/v) fetal bovine serum (FBS), 100 U/mL penicillin, and 0.1 mg/mL streptomycin. Cells were cultured at 37° C. in a humidified incubator with a gas phase of 95% air and 5% CO2.
Two days after seeding 1×10^6 cells in 100×20 mm culture dishes, culture medium was replaced with 1 mL medium containing either 1 μCi/mL of [H-3] FAU or [H-3] FAU-PA. Cells were incubated in a humidified incubator for two hours at 37° C. in an atmosphere of 5% CO2 and 95% air. At the end of the incubation period, radioactive medium was removed and cells were washed three times with ice cold PBS. Then, cells were trypsinized, centrifuged and rewashed three times with ice cold PBS. Cells were lysed with 1 mL of 1M ice-cold perchloric acid solution. The cell lysates were vortexed and centrifuged at 14000 g for 15 minutes. The supernatants were removed, and the pellets were rinsed twice with 1 mL PCA. The acid insoluble fractions were resuspended in 200 μl of Soluene-350. All the acid soluble fractions or supernatants and the acid insoluble fractions were mixed with 5 mL of Ultima Gold scintillation cocktail and counted for 5 minutes on a liquid scintillation counter after an overnight chilling. […]

[3] = system: RAJI cells; experiment: Growth inhibition, RAJI cells; assay type: cell-based, human; conditions: 72 hours; for growth inhibition (in words): 3-1000 μM
Procedure: as §1, §2, §3

[4] = system: U-937 cells; experiment: Growth inhibition, U-937 cells; assay type: cell-based, human; conditions: 72 hours
Procedure: as §1, §2
(§5) All cell lines were resuspended in fresh media at 3000 to 3500 cells/mL. […]

[5] = molecular target: T1, mammalian cytosolic thymidine kinase (TK1) (Homo sapiens, UniProt P04183); conditions: relative to thymidine or FMAU (Sun et al., 2003); cited from earlier work
T1 sequence (P04183 1-234): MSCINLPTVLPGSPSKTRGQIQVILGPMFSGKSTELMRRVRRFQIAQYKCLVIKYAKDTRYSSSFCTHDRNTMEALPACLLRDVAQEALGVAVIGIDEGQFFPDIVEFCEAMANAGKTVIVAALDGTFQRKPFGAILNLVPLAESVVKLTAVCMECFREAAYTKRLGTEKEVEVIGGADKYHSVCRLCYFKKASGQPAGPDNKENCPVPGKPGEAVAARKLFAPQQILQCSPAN

[6] = system: MOLT-4 cells; experiment: Growth inhibition, MOLT-4 cells; assay type: cell-based, human
Procedure: as §1, §2, §5

[7] = system: CEM cells; experiment: Growth inhibition, CEM cells; assay type: cell-based, human; conditions: 72 hours, cell counting
Procedure: as §1, §2, §5

[8] = system: Renca cells; experiment: Tracer uptake studies in Renca cells; assay type: cell-based, mouse; conditions: 2 hours, 1 μCi/mL [H-3] tracer
Procedure: as §4
Tracer uptake studies were performed using [H-3]FAU (318.2 GBq/mmol, >99% radiochemical purity), and [H-3]FAU-PA (9.25 GBq/mmol, >99% radiochemical purity). Radiochemicals were obtained from Moravek Biochemicals (Brea, Calif.).
Renca cells were seeded at 2×10^5 cells/mL in 6 well plates. After 48 hours, when cells were 50-60% confluent, culture medium was replaced with 1 mL medium containing either 1 μCi/mL of [H-3]FAU or [H-3]FAU-PA. Cells were incubated in a humidified incubator for two hours at 37° C. in an atmosphere of 5% CO2 and 95% air. At the end of the incubation period, radioactive medium was removed, and cells were rinsed three times with ice cold phosphate buffered saline (PBS). Then, cells were trypsinized, centrifuged at 2000 g for 5 minutes and rewashed three times with ice cold PBS. […] All the supernatants and pellet samples were mixed with 5 mL of Ultima Gold scintillation cocktail and counted for 5 minutes in a liquid scintillation counter. […]

[9] = system: pig liver esterase; experiment: Pig liver esterase hydrolysis studies; assay type: in vitro ADME; conditions: 1 mg/mL in 0.02 M Na2HPO4, 200 units esterase per mL, 37° C., followed by TLC
Procedure: Thymidine and phosphoramidate analogs were dissolved in 0.02 M Na2HPO4 at a concentration of 1 mg/mL and 200 units of pig liver esterase per mL solutions (Sigma, St. Louis, Mo.) were added. The mixtures were stirred and maintained at 37° C. through out the course of the experiment. The rate of hydrolysis was followed by thin layer chromatography (TLC) from reaction mixture samples collected at selected intervals. For TLC monitoring, CH2Cl2:MeOH (4:1) and i-PrOH:NH4OH:H2O (7:1:2) mobile phases were used. At the completion of hydrolysis, within 30 minutes, samples were run on a HPLC system.

Compound | growth inhibition at 1 mM ([1]; K-562 cells, 1 mM) [%] | growth inhibition (in words) ([1]; K-562 cells) | share of total accumulated activity found in the acid insoluble fraction [2] [%] | growth inhibition at 1 mM (in words) ([3]; 1 mM, compared with CEM) | growth inhibition (in words) [3] | growth inhibition at 1 mM (in words) ([4]; 1 mM, compared with CEM) | substrate quality for thymidine kinase (in words) [5] | growth inhibition at 1 mM (in words) ([6]; 1 mM, 72 hours, compared with CEM) | IC50 [7] [µM] | IC50 ([1]; Homo sapiens, K562, K-562 cells (printed K-567), cell counting) [µM] | intracellular accumulation of activity, FAU-PA relative to FAU [8] | intracellular accumulation of activity, FAU-PA relative to FAU ([8]; listed as [H-3]FAU-PA) [fold] | IC50 ([3]; Homo sapiens, cell counting) [µM] | IC50 ([4]; Homo sapiens, cell counting) [µM] | time for hydrolysis by pig liver esterase [9] [min] | IC50 ([6]; Homo sapiens, MOLT-4, 72 hours, cell counting) [µM] | IC50 ([7]; Homo sapiens, CCRF-CEM) [µM]
O=c1ccn([C@@H]2O[C@H](CO)[C@@H](O)[C@@H]2F)c(=O)[nH]1 [FAU, 1-(2′-deoxy-2′-fluoro-β-D-arabinofuranosyl)-uracil, reference compound] | 40 | little growth inhibition | 80 | somewhat less inhibited | little growth inhibition | somewhat less inhibited | poor substrate; also recorded: very poor substrate | somewhat less inhibited | < 100 |  |  |  |  |  |  |  | 
COC(=O)C(C)NP(=O)(OCC1OC(n2ccc(=O)[nH]c2=O)C(F)C1O)Oc1ccccc1 [FAU-PA, 1-(2′-deoxy-2′-fluoro-β-D-arabinofuranosyl)-uracil-5′-(phenylmethoxyalaninyl phosphate] |  | little growth inhibition | 72 |  | little growth inhibition |  |  |  |  | > 100 | > 17 fold and 17 fold | 17 | > 100 | < 60 | ≤ 15 | < 60 | < 60
COC(=O)C(C)NP(=O)(OCC1OC(n2cc(C)c(=O)[nH]c2=O)C[C@H]1O)Oc1ccccc1 (stereo partly drawn) [thymidine-PA, Methyl thymidine-5′-phenylphosphoryl-P→N-alaninate, reference compound] |  |  |  |  |  |  |  |  |  |  |  |  |  |  | 15 to 30 |  | 

Reference: patent US7888330B2, “Phosphoramidate derivatives of FAU” (Wayne State University, priority 2005, dated 2011)
